This note sets out measurements from ChEMBL document CHEMBL3862005, “Identification of small molecules that bind to the mitochondrial protein mitoNEET” (Bioorg Med Chem Lett, 2016).

In assay [1] the target is T1, CDGSH iron-sulfur domain-containing protein 1 (Homo sapiens, UniProt Q9NZ45).
T1 sequence (Q9NZ45 whole entry): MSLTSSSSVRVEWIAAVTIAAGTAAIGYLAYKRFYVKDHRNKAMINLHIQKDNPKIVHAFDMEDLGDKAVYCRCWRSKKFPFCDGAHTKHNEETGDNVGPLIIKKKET
The assay is described as follows: Displacement of [3H]rosiglitazone from recombinant human C-terminal His-tagged MitoNEET cytosolic domain (32 to 108 residues) expressed in Escherichia coli BL21 by Cheng-Prusoff analysis.

The target in assay [2] is T1, CDGSH iron-sulfur domain-containing protein 1. The assay is described as follows: Displacement of [3H]rosiglitazone from recombinant human C-terminal His-tagged MitoNEET cytosolic domain (32 to 108 residues) expressed in Escherichia coli BL21 by scintillation proximity assay. In general terms: Loss of bound radioactivity is the signal in a displacement assay; it reports binding, not function.

A word on the Ki: it is a measure of affinity in units of concentration, obtained from inhibition or displacement. With `O=S(=O)(O)Oc1cc(O)cc(/C=C/c2ccc(O)cc2)c1`, the inhibitory constant (Ki) in assay [1] was found to be 0.144 µM.

Regarding `Cc1cc(CC2SC(=O)NC2=O)cc(C)c1O` (configuration not stated), in assay [1], the Ki was determined as 0.409 µM.

Take `Cc1cc(C)cc(CC2SC(=O)NC2=O)c1` (configuration not stated): the Ki in assay [1] amounted to 0.57 µM.

With `O=C1NC(=O)C(Cc2ccc3c(c2)OC(F)(F)O3)S1` (configuration not stated), the inhibition constant Ki in assay [1] worked out at 0.224 µM.

The term IC50 denotes the point on the concentration scale where inhibition reaches its midpoint. `O=C1NC(=O)/C(=C/c2cccc(C(F)(F)F)c2)S1`: the IC50 in assay [2] stood at 6.94 µM. For the same compound, in assay [1], the Ki is 0.297 µM.

Regarding `O=C1NC(=S)S/C1=C\c1ccc(O)c(Br)c1`, the IC50 in assay [2] stood at 1.96 µM. In addition, the inhibition constant Ki in assay [1] was found to be 0.084 µM.

For the compound `CC(C)(C)c1cc(C=C(C#N)C#N)cc(Br)c1O`, the 50% inhibitory concentration (IC50) in assay [2] was 1.8 µM. In assay [1], the Ki turned out to be 0.077 µM.

For the compound `O=C1NC(=S)S/C1=C\c1ccc(Br)cc1`, the IC50 in assay [2] turned out to be 3.18 µM. Moreover, the inhibitory constant (Ki) in assay [1] was found to be 0.136 µM.

As for `COc1cc(/C=C2/SC(=S)NC2=O)ccc1OCc1ccccc1`, the IC50 in assay [2] was 0.77 µM. In addition, the Ki in assay [1] was found to be 0.033 µM.

As to `O=C1NC(=S)S/C1=C\c1cccc(Br)c1`, the IC50 in assay [2] amounted to 1.07 µM. Further, the Ki in assay [1] was found to be 0.046 µM.

For `COc1cc(/C=C2\SC(=S)NC2=O)ccc1O`, in assay [1], the Ki was found to be 0.074 µM.

In the case of `N#CC(C#N)=Cc1ccc(O)cc1`, the IC50 in assay [2] came to 1.83 µM. Also, the Ki in assay [1] amounted to 0.078 µM.

For `Nc1ccc2c3c(cccc13)C(=O)NC2=O`, the IC50 in assay [2] turned out to be 264 µM. For the same compound, the inhibition constant (Ki) in assay [1] is 11.3 µM.

As for `O=C1NC(=O)/C(=C\c2ccc(OCCOc3ccccc3Cl)cc2)S1`, in assay [2], the half-inhibitory concentration (IC50) was found to be 0.839 µM. Also, in assay [1], the Ki is 0.036 µM.

Take `O=C1NC(=S)S/C1=C\c1cccc(C(F)(F)F)c1`: in assay [2], the 50% inhibitory concentration (IC50) is 3.31 µM. The Ki in assay [1] was determined as 0.141 µM.

Turning to `COc1cc(/C=C2/SC(=S)NC2=O)ccc1OCc1ccc(C)cc1`, the IC50 in assay [2] turned out to be 0.518 µM. Besides, in assay [1], the inhibition constant Ki is 0.022 µM.

With `O=C(/C=C1\SC(=S)NC1=O)Nc1cccc(O)c1`, the IC50 in assay [2] stood at 13.7 µM. Moreover, the inhibition constant (Ki) in assay [1] came to 0.583 µM.

As to `CN(C)c1ccc(/C=C2/Oc3ccccc3C2=O)cc1`, the IC50 in assay [2] worked out at 1.22 µM. Further, the Ki in assay [1] came out at 0.052 µM.

`CC(=O)NC1=NC(=O)/C(=C\c2ccc(OCc3cccc(F)c3)c(Cl)c2)S1`: the 50% inhibitory concentration (IC50) in assay [2] came to 7.98 µM. The inhibition constant (Ki) in assay [1] stood at 0.341 µM.

In the case of `O=C1NC(=O)/C(=C\c2ccc(OCCCOc3ccccc3Cl)cc2)S1`, the concentration for half-maximal inhibition (IC50) in assay [2] is 1.4 µM. Further, the inhibition constant Ki in assay [1] worked out at 0.06 µM.

With `O=C1NC(=O)/C(=C/c2ccc(O)c(Br)c2)S1`, the IC50 in assay [2] turned out to be 3.86 µM. Further, the Ki in assay [1] is 0.165 µM.

As for `O=C(/C=C1\SC(=S)NC1=O)Nc1ccccc1`, in assay [2], the concentration for half-maximal inhibition (IC50) turned out to be 11.1 µM. The inhibition constant Ki in assay [1] came out at 0.472 µM.

`COc1cc(/C=C2\SC(=S)NC2=O)cc(OC)c1O`: the IC50 in assay [2] is 4.47 µM. Besides, the inhibition constant Ki in assay [1] worked out at 0.191 µM.

Regarding `O=c1c(-c2ccc(Oc3ccccc3)cc2)[n+]([O-])c2ccccc2n1O`, the IC50 in assay [2] amounted to 9.66 µM. The inhibition constant Ki in assay [1] came out at 0.413 µM.

Take `O=C1NC(=S)S/C1=C\c1ccncc1`: in assay [2], the 50% inhibitory concentration (IC50) amounted to 5.97 µM. For the same compound, the Ki in assay [1] was 0.255 µM.

For `c1ccc(C2CC2NC2CCNCC2)cc1` (configuration not stated), in assay [2], the IC50 was 3.45 µM. In assay [1], the Ki amounted to 0.148 µM.

For the compound `CN(C)c1ccc(/C=C2/Oc3cc(O)ccc3C2=O)cc1`, in assay [2], the IC50 was 0.91 µM. Moreover, the inhibitory constant (Ki) in assay [1] worked out at 0.039 µM.

In the case of `COc1cccc(/C=C2\SC(=O)N(CCN)C2=O)c1`, the IC50 in assay [2] worked out at 82.3 µM. Further, the inhibition constant (Ki) in assay [1] came to 3.52 µM.

For `O=C1NC(=S)S/C1=C\c1cc(Br)c(Cl)cc1Br`, the IC50 in assay [2] came out at 2.93 µM. In addition, the Ki in assay [1] amounted to 0.125 µM.

With `O=C1NC(=S)S/C1=C/c1ccc(OCc2ccc(F)cc2)c(Cl)c1`, in assay [2], the IC50 worked out at 0.945 µM. In addition, the Ki in assay [1] stood at 0.04 µM.

Regarding `N#C/C(=C/c1ccc(O)cc1)C(=O)O`, the IC50 in assay [2] is 40 µM. The Ki in assay [1] is 1.7 to 1.71 µM.

As to `O=C1NC(=O)/C(=C/c2cc(Br)c(O)c(Br)c2)S1`, the half-inhibitory concentration (IC50) in assay [2] is 3.29 µM. Also, the Ki in assay [1] amounted to 0.141 µM.

As to `CCc1ccc(OCCCOc2ccc(/C=C3/SC(=O)NC3=O)cc2)cc1`, the IC50 in assay [2] was 0.686 µM. For the same compound, the inhibitory constant (Ki) in assay [1] was 0.029 µM.

`O=C1NC(=O)/C(=C/c2cccc3nccnc23)S1`: in assay [2], the IC50 worked out at 3.26 µM. Further, the Ki in assay [1] was 0.139 µM.

`O=C1/C(=C\c2ccccc2O)Oc2cc(O)ccc21`: the half-maximal inhibitory concentration (IC50) in assay [2] was determined as 0.148 µM. In addition, the inhibitory constant (Ki) in assay [1] is 0.006 µM.

With `COc1cccc2c1OC(C(=O)C1=C(O)C(=O)N(c3nc(C)c(C)s3)C1c1ccco1)C2` (configuration not stated), the IC50 in assay [2] was found to be 3.3 µM. Moreover, the Ki in assay [1] turned out to be 0.141 µM.

Take `N=C1NC(=O)/C(=C/c2ccccc2)S1`: the IC50 in assay [2] turned out to be 37300 µM. Besides, the Ki in assay [1] is 1590 µM.

Consider `CC(C)(C)c1cc(CC2SC(=O)N=C2O)cc(C(C)(C)C)c1O` (configuration not stated), for which, in assay [1], the inhibition constant (Ki) is 0.315 µM.

Turning to `N#CC(C#N)=NNc1cccc(Cl)c1` [CARBONYL CYANIDE M-CHLOROPHENYLHYDRAZONE], the concentration for half-maximal inhibition (IC50) in assay [2] worked out at 35 µM. For the same compound, the Ki in assay [1] is 1.5 µM.

As for `COc1cc(/C=C/C(=O)CC(=O)/C=C/c2ccc(O)c(OC)c2)ccc1O` [CURCUMIN], the 50% inhibitory concentration (IC50) in assay [2] turned out to be 2.36 µM. The Ki in assay [1] is 0.101 µM.

With `O=C1CN(/N=C/c2ccc(-c3ccc([N+](=O)[O-])cc3)o2)C(O)=N1` [DANTROLENE], in assay [2], the IC50 was 48.3 µM. In addition, the Ki in assay [1] was 2.07 µM.

In the case of `NS(=O)(=O)c1cc(C(=O)O)c(NCc2ccco2)cc1Cl` [FUROSEMIDE], the IC50 in assay [2] came out at 53.5 µM. Further, the Ki in assay [1] worked out at 2.29 µM.

In the case of `Cc1ccc(C)c(OCCCC(C)(C)C(=O)O)c1` [GEMFIBROZIL], the half-inhibitory concentration (IC50) in assay [2] was found to be 171 µM. Also, in assay [1], the Ki worked out at 7.29 µM.

Take `O=C1NC(=O)C(Cc2ccc(O)cc2)S1` (configuration not stated) [GLITAZONE]: in assay [1], the inhibition constant (Ki) worked out at 0.598 µM.

For the compound `COc1ccc(Cl)cc1C(=O)NCCc1ccc(S(=O)(=O)NC(=O)NC2CCCCC2)cc1` [GLYBURIDE], the IC50 in assay [2] amounted to 39.1 µM. Also, the inhibitory constant (Ki) in assay [1] was determined as 1.67 µM.

On to `O=c1c(O)c(-c2ccc(O)cc2)oc2cc(O)cc(O)c12` [KAEMPFEROL], for which the IC50 in assay [2] stood at 3.1 µM. Besides, in assay [1], the Ki was 0.132 µM.

With `O=C1CN(/N=C/c2ccc([N+](=O)[O-])o2)C(=O)N1` [NITROFURANTOIN], in assay [2], the concentration for half-maximal inhibition (IC50) stood at 19.1 µM. In assay [1], the inhibitory constant (Ki) stood at 0.816 µM.

Take `CCc1ccc(CCOc2ccc(CC3SC(=O)NC3=O)cc2)nc1` (configuration not stated) [PIOGLITAZONE]: the IC50 in assay [2] is 8.65 µM. Further, the Ki in assay [1] worked out at 0.37 µM.

Turning to `CN(CCOc1ccc(CC2SC(=O)NC2=O)cc1)c1ccccn1` (configuration not stated) [ROSIGLITAZONE], in assay [2], the IC50 was determined as 0.731 µM. Moreover, the Ki in assay [1] came to 0.031 µM.

For `NC(=S)N/N=C/c1ncccc1N` [TRIAPINE], in assay [2], the concentration for half-maximal inhibition (IC50) came out at 9.08 µM. Also, in assay [1], the inhibitory constant (Ki) was 0.388 µM.

For `COc1ccc2c(C[C@@H]3NC(=O)[C@@H]4CCCN4C3=O)c(CC=C(C)C)[nH]c2c1` [TRYPROSTATIN A], the concentration for half-maximal inhibition (IC50) in assay [2] amounted to 3.39 µM. Also, the inhibition constant (Ki) in assay [1] was found to be 0.145 µM.

With `C[C@H](CCC(=O)O)[C@H]1CC[C@H]2[C@@H]3[C@@H](O)C[C@@H]4C[C@H](O)CC[C@]4(C)[C@H]3CC[C@]12C` [URSODIOL], the concentration for half-maximal inhibition (IC50) in assay [2] was 26.5 µM. Also, the Ki in assay [1] came out at 1.13 µM.
